According to paper PMC11109155, “Cell-free biosynthesis and engineering of ribosomally synthesized lanthipeptides” (Nature Communications, 2024):

Assays:
[1] = system: Staphylococcus aureus RN4220; experiment: Agar diffusion assay (diameter of zone of inhibition); type: cell-based; settings: for DZI, diameter of zone of inhibition: LB agar, 6 mm paper disks, 37 °C 16 h, peptides 1 mM (SalB & B-1: cell-free synthesized, purified mixture; SalB and SalB-1: produced in vivo, purified), Kan 50 μg/mL positive control, representative of n = 3; for Antimicrobial activity against Staphylococcus aureus RN4220 (in words): agar diffusion assay, in vivo and cell-free produced peptides, 1 mM
Text: Fig. 2 In vitro expression, modification, and maturation of salivaricin B in UniBioCat. a The gene cluster (top) and catalytic steps (bottom) of salivaricin B biosynthesis. Dha, dehydroalanine; Dhb, dehydrobutyrine; Abu, α-aminobutyric acid. b Western-blot analysis of the cell-free expressed precursor peptide (left: SboA, 7.8 kDa) and modification enzymes [right: SboM (113 kDa) and SboT (83 kDa) are co-expressed]. Peptides/enzymes are labeled with the anti-His antibody. M, protein marker; T, total protein; S, soluble protein. Results were reproduced three times independently; representative data are shown. c MALDI-TOF-MS analysis of the precursor peptide (left: 6x His-tagged SboA, [M + H]^+ m/z = 7355) and modified precursor peptides (right: dehydrated 6x His-tagged SboA, [M-H2O + H]^+ m/z = 7337, [M-2H2O + H]^+ m/z = 7319, and [M−4H2O + H]^+ m/z = 7283). d MALDI-TOF-MS (left), LC-MS (middle), and MS/MS (right) analysis of matured salivaricin B. e MALDI-TOF-MS (left), LC-MS (middle), and MS/MS (right) analysis of the analog salivaricin B−1 with one additional amino acid alanine at the N-terminus. f Antimicrobial activity assay of salivaricin B (SalB) and salivaricin B-1 (SalB-1). “SalB & B-1” was cell-free synthesized and purified for the activity assay (note that the sample used was a mixture of SalB and B-1 with a concentration of 1 mM for the test). For in vivo produced SalB and SalB-1, 1 mM of each purified SalB and SalB-1 was used for the activity assay. NC, negative control; Kan, kanamycin (50 μg/mL) as a positive control; DZI, diameter of zone of inhibition (in mm). Data shown representative of three independent experiments (n = 3). Source data are provided as a Source Data file. TEXT PRINTED IN THE PICTURE: (f) Kan: DZI: 22 | (f) SalB & B-1 (UniBioCat): DZI: 7.5 | (f) SalB (in vivo): DZI: 7.5 | (f) SalB-1 (in vivo): DZI: 9.5
Two approaches were used for testing antimicrobial activity, including solid agar plate diffusion and liquid medium cultivation. In the diffusion assay, the overnight cultivated indicator strain S. aureus RN4220 was mixed with the melted LB agar medium (a starting OD600 of 0.05). The mixture was poured onto the plate and allowed to solidify at room temperature for 30 min. Then, sterile paper disks (diameter 6 mm) were placed on the surface of the agar plate and 1 mM of each peptide was added to the paper disk. The plates were incubated at 37 °C for 16 h, and the diameter of the zone of inhibition (DZI, in mm) was measured for comparison. In the second approach, the assay was performed in 96-well plates, and cell-free synthesized mature peptides were directly used without purification. For the samples of salivaricin B variants, 80 μL of each sample (diluted if necessary) was mixed with 120 μL of LB medium, containing each variant at a roughly final concentration of 6–7 μM and the indicator strain S. aureus RN4220 (a starting OD600 of 0.02). For the samples of uncharacterized (Lan 1 - Lan 10) and three known (lacticin 481, ruminococcin A, and nukacin ISK-1) lanthipeptides, 80 μL of the cell-free reaction mixture was added directly to the liquid cultivation without quantification. The 96-well plates were incubated at 37 °C and 150 rpm for 12 h. During the cultivation, OD600 values were measured every 2 h and ΔOD600 was calculated to compare the antimicrobial activity of tested samples. In all assays, kanamycin was used as a positive for comparison.

[2] = system: S. aureus RN4220; experiment: Liquid medium cultivation in 96-well plates, growth inhibition as ΔOD600; type: cell-based, Staphylococcus aureus; settings: peptides produced in vivo and purified, Supplementary Fig. 12 (50 μM, liquid) and Fig. 2f (1 mM, agar diffusion)
Text: Fig. 3 Generation of salivaricin B mutants and their antimicrobial activity. a Representative MALDI-TOF-MS analyses of single-site mutagenesis at the position of Q6 or L20. b Representative MALDI-TOF-MS analyses of two-site mutagenesis at the positions of Q6 and L20. In (a) and (b), salivaricin B-1 based variants are the most abundant products in all analyses, which are indicated with the [M + H]^+ ions. c Quantification of salivaricin B mutants that are synthesized in UniBioCat reactions (see Supplementary Table 5 for the yield of each peptide variant). d Antimicrobial activity assay showing ΔOD600 profiles of S. aureus RN4220 growth treated with single-site (top) and two-site (bottom) mutants. […]
Two approaches were used for testing antimicrobial activity, including solid agar plate diffusion and liquid medium cultivation. […] The plates were incubated at 37 °C for 16 h, and the diameter of the zone of inhibition (DZI, in mm) was measured for comparison. […] For the samples of uncharacterized (Lan 1 - Lan 10) and three known (lacticin 481, ruminococcin A, and nukacin ISK-1) lanthipeptides, 80 μL of the cell-free reaction mixture was added directly to the liquid cultivation without quantification. […] During the cultivation, OD600 values were measured every 2 h and ΔOD600 was calculated to compare the antimicrobial activity of tested samples. […]

[3] = system: Lactococcus lactis; experiment: MIC (broth microdilution) and IC50 determination; type: cell-based; settings: LB, 30 °C, 130 rpm
Description: (§1) MIC values were determined by using a broth microdilution method. Overnight cultures of each indicator strain were diluted to 5 × 10^5 CFU mL^−1 using fresh LB medium and distributed into 96-well plates. Then, the cells were treated with twofold serial dilutions of the purified peptides (i.e., salivaricin B and variants). The total volume of each cultivation was 200 μL per well, consisting of 175 μL bacteria cells and 25 μL diluted peptides. The final concentrations of each peptide were set at 0.12, 0.25, 0.5, 1, 2, 4, 8, and 16 μM. The positive growth control wells only contained bacterial cells without addition of peptides. The plates were incubated with 130 rpm at 37 °C for B. subtilis and M. luteus and 30 °C for L. lactic. After incubation, the lowest peptide concentration, which inhibited 90% of the bacterial growth, was recorded as the MIC. The growth curves were used to determine IC50 values with GraphPad Prism (version 10.2.1, GraphPad Software).
(§2) Supplementary Table 6 Minimal inhibitory concentrations (MIC) and IC50 of salivaricin B and variants.
(§3) Bacillus subtilis Micrococcus luteus Lactococcus lactis
(§4) Peptides MIC IC50 MIC IC50 MIC IC50
(§5) (μM) (μM) (μM) (μM) (μM) (μM)
(§6) Source data are provided as a Source Data file.

[4] = system: Micrococcus luteus; experiment: MIC (broth microdilution) and IC50 determination; type: cell-based; settings: LB, 37 °C, 130 rpm
Description: as §1, §2, §3, §4, §5, §6

[5] = system: Bacillus subtilis; experiment: MIC (broth microdilution) and IC50 determination; type: cell-based; settings: LB, 37 °C, 130 rpm
Description: as §1, §2, §3, §4, §5, §6

[6] = read-out: IC50 of salivaricin B, previous report; cited from earlier work
Description: We next sought to test the antimicrobial activity of the mutated salivaricin B variants against the indicator strain S. aureus RN4220. To compare their activity, we first determined the concentrations of all peptide variants synthesized in UniBioCat reactions (Fig. 3c and Supplementary Table 5) and added an equal amount of each variant to the cell culture in 96-well plates. During the cultivation, OD600 values were measured every 2 h for a total of 12 h. […] Based on the ...

[7] = system: S. aureus RN4220; experiment: MIC and IC50 assay with the indicator strain S. aureus RN4220; type: cell-based, Staphylococcus aureus; settings: purified peptides produced in vivo
Description: We next sought to test the antimicrobial activity of the mutated salivaricin B variants against the indicator strain S. aureus RN4220. To compare their activity, we first determined the concentrations of all peptide variants synthesized in UniBioCat reactions (Fig. 3c and Supplementary Table 5) and added an equal amount of each variant to the cell culture in 96-well plates. During the cultivation, OD600 values were measured every 2 h for a total of 12 h. […] Based on the single-site mutagenesis and activity assay, we performed a second-round mutation with two-site mutagenesis at both Q6 and L20 using eight selected variants (the combination leads to 15 two-site mutated variants). All these new variants could be synthesized and detected by MALDI-TOF-MS (see Fig. 3b for representative analyses). […] To further verify their activity and compare to standard in vivo approaches, six variants including single- and two-site mutation were selected to be produced by in vivo expression/modification and in vitro digestion for maturation. […] Additionally, we evaluated the MIC and IC50 of four strong variants (see Supplementary Fig. 12 for SalB_Q6H, SalB_L20M, SalB_L20I-Q6H, and SalB_L20M-Q6H) against three other indicator strains, including Bacillus subtilis, Micrococcus luteus, and Lactococcus lactis.
MIC values were determined by using a broth microdilution method. […]

[8] = broth microdilution, 5 × 10^5 CFU mL^−1, purified peptides 0.12–16 μM twofold dilutions, lowest concentration inhibiting 90% of growth
[9] = from growth curves, GraphPad Prism, purified peptides 0.12–16 μM

Compound | DZI, diameter of zone of inhibition [1] [mm] | Antimicrobial activity against Staphylococcus aureus RN4220 (in words) [1] | Antimicrobial activity compared with salivaricin B, purified peptides (in words) [2] | MIC, Lactococcus lactis [3, 8] [µM] | IC50 [3, 9] [µM] | MIC, Micrococcus luteus [4, 8] [µM] | IC50 [4, 9] [µM] | MIC, Bacillus subtilis [5, 8] [µM] | IC50 [5, 9] [µM] | IC50 [6] [µM] | IC50 [7] [µM]
NC[C@H]1O[C@H](O[C@H]2[C@H](O)[C@@H](O[C@H]3O[C@H](CO)[C@@H](O)[C@H](N)[C@H]3O)[C@H](N)C[C@@H]2N)[C@H](O)[C@@H](O)[C@@H]1O [Kan, kanamycin, reference compound] | 22 |  |  |  |  |  |  |  |  |  | 
AGGGVIQAbuIAlaHEAlaRMNAlaWQFLFDhbAlaAlaS (bicyclic or more) [Salivaricin B-1, salivaricin B-1, salivaricin B-like peptide with one additional amino acid alanine at the N-terminus] | 9.5 | clear inhibitory effects on cell growth | even higher antimicrobial activity than salivaricin B |  |  |  |  |  |  |  | 
GGGVIQAbuIAlaHEAlaRMNAlaWQFLFDhbAlaAlaS (bicyclic or more) [Salivaricin B, salivaricin B, class II lanthipeptide naturally produced by Streptococcus salivarius K12; wild type, made cell-free or in vivo] | 7.5 | clear inhibitory effects on cell growth |  | 4 | 1.67 ± 0.08 | 2 | 1.19 ± 0.05 | 4 | 1.88 ± 0.01 | 8.64 | > 8
